Measurements: ChEMBL document CHEMBL2401627, “Synthesis of some novel chalcones, flavanones and flavones and evaluation of their anti-inflammatory activity” (Eur J Med Chem, 2013)

Experiments:
Rattus norvegicus [1] = test: Antiinflammatory activity in Wistar rat assessed as inhibition of carrageenan-induced hind paw oedema at 20 mg/kg, po administered 30 mins before carrageenan challenge measured after 5 hrs by plethysmometer relative to control; format: functional
Rattus norvegicus [2] = test: Antiinflammatory activity in Wistar rat assessed as inhibition of carrageenan-induced hind paw oedema at 20 mg/kg, po administered 30 mins before carrageenan challenge measured after 3 hrs by plethysmometer relative to control; format: functional
Rattus norvegicus [3] = test: Gastrointestinal toxicity in Wistar rat assessed as ulcerogenic index at 60 mg/kg, po after 6 hrs relative to control; format: organism-based; parameters: dose 60 mg/kg, route oral; details: in vivo
RAW264.7 [4] = test: Antiinflammatory activity in mouse RAW264.7 cells assessed as inhibition of LPS-induced TNFalpha production at 10 uM treated 30 mins before LPS challenge measured after 1 hr by ELISA relative to control; format: functional
RAW264.7 [5] = test: Antiinflammatory activity in mouse RAW264.7 cells assessed as inhibition of LPS-induced TNFalpha production at 10 uM treated 30 mins before LPS challenge measured after 2 hrs by ELISA relative to control; format: functional
RAW264.7 [6] = test: Antiinflammatory activity in mouse RAW264.7 cells assessed as inhibition of LPS-induced TNFalpha production at 10 uM treated 30 mins before LPS challenge measured after 3 hrs by ELISA relative to control; format: functional
RAW264.7 [7] = test: Antiinflammatory activity in mouse RAW264.7 cells assessed as inhibition of LPS-induced TNFalpha production at 5 uM treated 30 mins before LPS challenge measured after 3 hrs by ELISA relative to control; format: functional
[8] = target: T1, Prostaglandin G/H synthase 1 (Ovis aries, UniProt P05979); test: Inhibition of ovine COX1
T1 sequence (P05979 whole entry): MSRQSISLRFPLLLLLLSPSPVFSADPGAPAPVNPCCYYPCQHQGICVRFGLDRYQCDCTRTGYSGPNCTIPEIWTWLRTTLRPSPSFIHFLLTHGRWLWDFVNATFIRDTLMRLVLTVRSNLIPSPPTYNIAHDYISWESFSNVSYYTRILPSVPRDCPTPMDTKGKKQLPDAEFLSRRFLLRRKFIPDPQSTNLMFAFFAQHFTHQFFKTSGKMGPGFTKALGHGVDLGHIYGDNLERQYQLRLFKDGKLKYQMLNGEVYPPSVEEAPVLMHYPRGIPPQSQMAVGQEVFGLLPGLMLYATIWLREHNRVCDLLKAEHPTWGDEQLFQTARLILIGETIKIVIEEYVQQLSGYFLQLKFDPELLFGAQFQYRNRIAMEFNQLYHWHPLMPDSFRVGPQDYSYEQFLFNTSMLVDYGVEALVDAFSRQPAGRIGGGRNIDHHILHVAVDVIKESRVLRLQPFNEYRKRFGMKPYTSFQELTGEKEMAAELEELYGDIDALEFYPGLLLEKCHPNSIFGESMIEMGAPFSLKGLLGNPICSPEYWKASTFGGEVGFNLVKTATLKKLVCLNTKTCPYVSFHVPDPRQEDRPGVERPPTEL

RAW264.7 [9] = test: Antiinflammatory activity in mouse RAW264.7 cells assessed as inhibition of LPS-induced TNFalpha production at 5 uM treated 30 mins before LPS challenge measured after 2 hrs by ELISA relative to control; format: functional
RAW264.7 [10] = test: Antiinflammatory activity in mouse RAW264.7 cells assessed as inhibition of LPS-induced TNFalpha production at 5 uM treated 30 mins before LPS challenge measured after 1 hr by ELISA relative to control; format: functional

SMILES	inhibition in vivo at 20 mg/kg (Rattus norvegicus [1])	inhibition in vivo at 20 mg/kg (Rattus norvegicus [2])	UI (Rattus norvegicus [3])	further results
COc1cc(/C=C/C(=O)c2c(OC)cc(C)c(Cl)c2C)ccc1O	25%	22.2%		
Cc1cc(O)c(C(=O)/C=C/c2ccccc2)c(C)c1Cl	82%	70%	0.4 mm	
COc1ccc(/C=C/C(=O)c2c(O)cc(C)c(Cl)c2C)cc1	55%	50%		
Cc1cc(O)c(C(=O)/C=C/c2ccc(Cl)cc2)c(C)c1Cl	36%	41.6%		
Cc1cc(O)c(C(=O)/C=C/c2ccccc2Cl)c(C)c1Cl	70%	33%		
COc1ccc(/C=C/C(=O)c2c(O)cc(C)c(Cl)c2C)cc1OC	82%	71%	0.6 mm	
COc1cc(/C=C/C(=O)c2c(O)cc(C)c(Cl)c2C)cc(OC)c1OC	90.6%	91.7%	0.4 mm	Activity (RAW264.7 [4]): 34.99 pg/mL; Activity (RAW264.7 [5]): 53.77 pg/mL; Activity (RAW264.7 [6]): 88.83 pg/mL; Activity (RAW264.7 [7]): 104.78 pg/mL; IC50 [8]: 87.5 µM; Activity (RAW264.7 [9]): 79.77 pg/mL; Activity (RAW264.7 [10]): 49.42 pg/mL
Cc1cc(O)c(C(=O)/C=C/c2cccc(O)c2)c(C)c1Cl	71%	83%	0.4 mm	
Cc1cc(O)c(C(=O)/C=C/c2ccccc2[N+](=O)[O-])c(C)c1Cl	14.3%	26.3%		
COc1cc(C)c(Cl)c(C)c1C(=O)/C=C/c1ccccc1	75%	69.2%		
COc1ccc(/C=C/C(=O)c2c(OC)cc(C)c(Cl)c2C)cc1	12.5%	16.7%		
COc1cc(C)c(Cl)c(C)c1C(=O)/C=C/c1ccc(Cl)cc1	12.5%	22.2%		
COc1cc(C)c(Cl)c(C)c1C(=O)/C=C/c1ccccc1Cl	12.5%	27.8%		
COc1ccc(/C=C/C(=O)c2c(OC)cc(C)c(Cl)c2C)cc1OC	62%	81%	0.16 mm	
COc1cc(/C=C/C(=O)c2c(OC)cc(C)c(Cl)c2C)cc(OC)c1OC	62.5%	76.9%	0.16 mm	
COc1cc(C)c(Cl)c(C)c1C(=O)/C=C/c1cccc(O)c1	75%	80.8%	0.33 mm	
COc1cc(C)c(Cl)c(C)c1C(=O)/C=C/c1ccccc1O	50%	33.3%		
COc1cc(C)c(Cl)c(C)c1C(=O)/C=C/c1cccc([N+](=O)[O-])c1	22.2%	68.2%		
COc1cc(C)c(Cl)c(C)c1C(=O)/C=C/c1ccc(N(C)C)cc1	18.8%	22.2%		
